Laboratory results: patent US6379649B1, “Imidazo(1,2-a)pyridines as peripheral benzodiazepine receptor binding agents” (Australian Nuclear Science & Technology Organisation, priority 1998, dated 2002)
Where two headings read alike, the source gives them in different places.

Key:
[1] = target: central benzodiazepine receptor; assay: In vitro binding assay for central benzodiazepine receptors ([^3H]-Ro 15-1788, rat cortex membranes); conditions: rat cortex membrane / rat brain homogenates, [^3H]-Ro 15-1788 2 nM, 25° C., 45 minutes; read-out: IC50 (nM) CBR
Experimental: In Vitro Binding Assays for Central Benzodiazepine Receptors
Male Sprague Dawley rats are sacrificed by CO2 administration followed by cervical dislocation. Cortex is removed and placed in 20 volumes of ice-cold buffer ([…] Tris-HCl, pH 7.4) and minced finely with scissors. After homogenising the preparation will a polytron (PCU Kinematica, Bioblock, Switzerland) with one 10-second burst at a setting of 6, the suspension is centrifuged at 20,000 g for 20 minutes at 4° C. The pellets are resuspended in the previous buffer with a dounce (manual homogeniser). After the second centrifugation, the pellet is suspended in a final buffer (50 nM Tris/HCl, 0.32M sucrose, pH 7.4) to yield an appropriate protein concentration. Protein measurements are made by Lowry's method using bovine serum albumin as standard.
(§1) Non-specific binding is determined by blocking with cold Flumazenil (20 μM). Incubation is terminated by rapid filtration through Whatman GF/B glass fiber. Each sample tube and filter is immediately washed with 3 aliquots of 5 mL ice-cold […] Tris/HCl at pH 7.4. Filters are counted with a β-scintillation counter (Packard) to measure the amount of bound radioactivity. Ki and IC50 are calculated by EBDA/Ligand, iterative non-linear least squares curve-fitting programs (G. A. McPherson, J. Pharmacol. Methods 14, 213-228 (1985)).

[2] = target: peripheral benzodiazepine receptor (Rattus norvegicus, UniProt P16257); assay: In vitro binding assay for peripheral benzodiazepine receptors ([^3H]-PK11195, rat kidney membranes); set-up: diluted kidney membrane preparation; from tissue; host or cells: rat kidney membranes (Sprague Dawley)
peripheral benzodiazepine receptor, sequence (P16257 whole entry): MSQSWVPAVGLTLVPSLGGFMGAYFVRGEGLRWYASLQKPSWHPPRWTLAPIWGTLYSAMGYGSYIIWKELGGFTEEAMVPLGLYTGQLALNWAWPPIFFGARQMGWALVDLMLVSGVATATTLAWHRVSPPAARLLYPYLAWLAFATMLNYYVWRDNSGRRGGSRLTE
Experimental: In Vitro Binding Assays for Peripheral Benzodiazepine Receptors
Male Sprague Dawley rats are sacrificed by CO2 administration followed by cervical dislocation. Kidneys are removed and placed in 20 volumes of ice-cold buffer ([…] Tris-HCl, pH 7.4) and minced finely with scissors. After homogenising the preparation with a polytron (PCU Kintematica, Bioblock, Switzerland) with one 10-second burst at a setting of 10, the suspension is centrifuged at 49,000 g for 15 minutes at 4° C. The pellets are resuspended in the previous buffer with a dounce (manual homogeniser) to yield an appropriate protein concentration. Protein measurements are made by Lowry's method using bovine serum albumin as standard.
as §1, with “PK11195 (10” for “Flumazenil (20”, “programs.” for “programs (G. A. McPherson, J. Pharmacol. Methods 14, 213-228 (1985)).”

[3] = In vivo biodistribution of radiolabelled compounds in rats
From the text: In vivo biodistribution of radiolabelled compounds of the invention indicated high uptake in the tissues which have known PBR sites. Tables 2 to 4 show the biodistribution of the compounds of Examples 1-3, in which the iodine atom is radiolabelled, when administered to rats.

## CNC(=O)Cc1c(-c2ccc(F)cc2)nc2ccc(Cl)cn12 [B]
[1]
  IC50: 5.9 nM
other
  melting point: 254 to 256 °C
[2]
  IC50: > 1000 nM

## NC(=O)Cc1c(-c2ccc(F)cc2)nc2ccc(Cl)cn12 [Comparative Example A]
[1]
  IC50: 170 nM
other
  melting point: 250 to 252 °C
[2]
  IC50: 3340 nM

## CCCCN(CCCC)C(=O)Cc1c(-c2ccc(I)cc2)nc2ccc(Cl)cn12 [Example 7, 6-chloro-2-(4′-iodophenyl)-imidazo[1,2-a]pyridine-3-(N,N-dibutyl)-acetamide]
[1]
  IC50: > 1000 nM
other
  melting point: 250 to 252 °C
[2]
  IC50: 177 nM

## CN(C)C(=O)Cc1c(-c2ccc(I)cc2)nc2ccc(Cl)cn12 [Example 2]
[1]
  IC50: 168 nM
other
  melting point: 216 to 218 °C
[2]
  IC50: 2.3 nM

## Cc1ccc2nc(-c3ccc(I)cc3)c(CC(=O)N(C)C)n2c1 [E, 6-methyl-2-(4′-iodophenyl)imidazo[1,2-a]pyridine-3-(N,N-dimethyl)acetamide, reference compound]
[1]
  IC50: 155 nM
[2]
  IC50: 176 nM

## CNC(=O)Cc1c(-c2ccc(Cl)cc2)nc2ccc(Br)cn12 [C]
[1]
  IC50: 15 nM
other
  melting point: 298 to 300 °C
[2]
  IC50: 33 nM

## CCN(CC)C(=O)Cc1c(-c2ccc(I)cc2)nc2ccc(Cl)cn12 [Example 3, 6-chloro-2-(4′-iodophenyl)-imidazo[1,2-a]pyridine-3-(N,N-diethyl)acetamide]
[1]
  IC50: > 1000 nM
[2]
  IC50: < 0.01 nM

## CCCN(CCC)C(=O)Cc1c(-c2ccc(I)cc2)nc2ccc(Cl)cn12 [Example 5, 6-chloro-2-(4′-iodophenyl)-imidazo[1,2-a]pyridine-3-(N,N-dipropyl)-acetamide]
[1]
  IC50: > 1000 nM
other
  melting point: 152 to 153 °C
[2]
  IC50: 3.91 nM

## CCCN(C)C(=O)Cc1c(-c2ccc(I)cc2)nc2ccc(Cl)cn12 [Example 4, 6-chloro-2-(4′-iodophenyl)-imidazo[1,2-a]pyridine-3-(N-methyl, N-propyl)-acetamide]
[1]
  IC50: 117 nM
other
  melting point: 170 to 172 °C
[2]
  IC50: 0.98 nM

## CN(C)C(=O)Cc1c(-c2ccc(Cl)cc2)nc2ccc(Br)cn12 [D]
[1]
  IC50: 56.5 nM
other
  melting point: 234 to 236 °C
[2]
  IC50: 90 nM

## CNC(=O)Cc1c(-c2ccc([123I])cc2)nc2ccc(Cl)cn12 [^123-I Example 1]
[3]; 5 Min
  Biodistribution (% ID/g organ) Adrenals: 4.51 ± 1.32 % ID/g organ
  Biodistribution (% ID/g organ) Blood: 0.25 ± 0.04 % ID/g organ
  Biodistribution (% ID/g organ) Brain: 0.11 ± 0.02 % ID/g organ
  Biodistribution (% ID/g organ) Heart: 3.25 ± 0.58 % ID/g organ
  Biodistribution (% ID/g organ) Kidney: 1.8 ± 0.35 % ID/g organ
  Biodistribution (% ID/g organ) Liver: 0.94 ± 0.12 % ID/g organ
  Biodistribution (% ID/g organ) Lungs: 2.81 ± 0.49 % ID/g organ
  Biodistribution (% ID/g organ) Olfactive bulbs: 0.2 ± 0.02 % ID/g organ
  Biodistribution (% ID/g organ) Testes: 0.14 ± 0.03 % ID/g organ
[3]; 15 Min
  Biodistribution (% ID/g organ) Adrenals: 7.8 ± 2.16 % ID/g organ
  Biodistribution (% ID/g organ) Blood: 0.16 ± 0.01 % ID/g organ
  Biodistribution (% ID/g organ) Brain: 0.08 ± 0.01 % ID/g organ
  Biodistribution (% ID/g organ) Heart: 2.09 ± 0.09 % ID/g organ
  Biodistribution (% ID/g organ) Kidney: 1.66 ± 0.13 % ID/g organ
  Biodistribution (% ID/g organ) Liver: 0.7 ± 0.07 % ID/g organ
  Biodistribution (% ID/g organ) Lungs: 1.79 ± 0.18 % ID/g organ
  Biodistribution (% ID/g organ) Olfactive bulbs: 0.18 ± 0.03 % ID/g organ
  Biodistribution (% ID/g organ) Testes: 0.22 ± 0.06 % ID/g organ
[3]; 24 Hrs
  Biodistribution (% ID/g organ) Adrenals: 0.22 ± 0.09 % ID/g organ
  Biodistribution (% ID/g organ) Blood: 0.01 ± 0.001 % ID/g organ
  Biodistribution (% ID/g organ) Brain: 0 % ID/g organ
  Biodistribution (% ID/g organ) Heart: 0.02 ± 0.001 % ID/g organ
  Biodistribution (% ID/g organ) Kidney: 0.03 ± 0.001 % ID/g organ
  Biodistribution (% ID/g organ) Liver: 0.09 ± 0.01 % ID/g organ
  Biodistribution (% ID/g organ) Lungs: 0.02 ± 0.001 % ID/g organ
  Biodistribution (% ID/g organ) Olfactive bulbs: 0.01 ± 0.001 % ID/g organ
  Biodistribution (% ID/g organ) Testes: 0.01 ± 0.001 % ID/g organ
[3]; 30 Min
  Biodistribution (% ID/g organ) Adrenals: 11 ± 2.57 % ID/g organ
  Biodistribution (% ID/g organ) Blood: 0.12 ± 0.01 % ID/g organ
  Biodistribution (% ID/g organ) Brain: 0.06 ± 0.01 % ID/g organ
  Biodistribution (% ID/g organ) Heart: 1.41 ± 0.14 % ID/g organ
  Biodistribution (% ID/g organ) Kidney: 1.25 ± 0.09 % ID/g organ
  Biodistribution (% ID/g organ) Liver: 0.59 ± 0.04 % ID/g organ
  Biodistribution (% ID/g organ) Lungs: 1.39 ± 0.14 % ID/g organ
  Biodistribution (% ID/g organ) Olfactive bulbs: 0.13 ± 0.02 % ID/g organ
  Biodistribution (% ID/g organ) Testes: 0.26 ± 0.05 % ID/g organ
[3]; 60 Min
  Biodistribution (% ID/g organ) Adrenals: 11.3 ± 0.87 % ID/g organ
  Biodistribution (% ID/g organ) Blood: 0.1 ± 0.01 % ID/g organ
  Biodistribution (% ID/g organ) Brain: 0.04 ± 0.001 % ID/g organ
  Biodistribution (% ID/g organ) Heart: 1.07 ± 0.09 % ID/g organ
  Biodistribution (% ID/g organ) Kidney: 0.97 ± 0.07 % ID/g organ
  Biodistribution (% ID/g organ) Liver: 0.47 ± 0.02 % ID/g organ
  Biodistribution (% ID/g organ) Lungs: 0.97 ± 0.22 % ID/g organ
  Biodistribution (% ID/g organ) Olfactive bulbs: 0.14 ± 0.001 % ID/g organ
  Biodistribution (% ID/g organ) Testes: 0.28 ± 0.05 % ID/g organ
[3]; 180 Min
  Biodistribution (% ID/g organ) Adrenals: 9.84 ± 1.69 % ID/g organ
  Biodistribution (% ID/g organ) Blood: 0.07 ± 0.001 % ID/g organ
  Biodistribution (% ID/g organ) Brain: 0.03 ± 0.001 % ID/g organ
  Biodistribution (% ID/g organ) Heart: 0.68 ± 0.09 % ID/g organ
  Biodistribution (% ID/g organ) Kidney: 0.61 ± 0.02 % ID/g organ
  Biodistribution (% ID/g organ) Liver: 0.37 ± 0.01 % ID/g organ
  Biodistribution (% ID/g organ) Lungs: 0.72 ± 0.05 % ID/g organ
  Biodistribution (% ID/g organ) Olfactive bulbs: 0.09 ± 0.02 % ID/g organ
  Biodistribution (% ID/g organ) Testes: 0.25 ± 0.01 % ID/g organ
[3]; 240 Min
  Biodistribution (% ID/g organ) Adrenals: 6.78 ± 1.27 % ID/g organ
  Biodistribution (% ID/g organ) Blood: 0.06 ± 0.01 % ID/g organ
  Biodistribution (% ID/g organ) Brain: 0.02 ± 0.01 % ID/g organ
  Biodistribution (% ID/g organ) Heart: 0.54 ± 0.05 % ID/g organ
  Biodistribution (% ID/g organ) Kidney: 0.5 ± 0.07 % ID/g organ
  Biodistribution (% ID/g organ) Liver: 0.33 ± 0.04 % ID/g organ
  Biodistribution (% ID/g organ) Lungs: 0.63 ± 0.05 % ID/g organ
  Biodistribution (% ID/g organ) Olfactive bulbs: 0.07 ± 0.001 % ID/g organ
  Biodistribution (% ID/g organ) Testes: 0.22 ± 0.03 % ID/g organ
[3]; 360 Min
  Biodistribution (% ID/g organ) Adrenals: 5.7 ± 0.15 % ID/g organ
  Biodistribution (% ID/g organ) Blood: 0.05 ± 0.001 % ID/g organ
  Biodistribution (% ID/g organ) Brain: 0.02 ± 0.001 % ID/g organ
  Biodistribution (% ID/g organ) Heart: 0.38 ± 0.02 % ID/g organ
  Biodistribution (% ID/g organ) Kidney: 0.36 ± 0.01 % ID/g organ
  Biodistribution (% ID/g organ) Liver: 0.27 ± 0.01 % ID/g organ
  Biodistribution (% ID/g organ) Lungs: 0.44 ± 0.07 % ID/g organ
  Biodistribution (% ID/g organ) Olfactive bulbs: 0.05 ± 0.001 % ID/g organ
  Biodistribution (% ID/g organ) Testes: 0.16 ± 0.03 % ID/g organ

## CCCCN(C)C(=O)Cc1c(-c2ccc(I)cc2)nc2ccc(Cl)cn12 [Example 6, 6chloro-2-(4′-iodophenyl)-imidazo[1,2-a]pyridine-3-(N-methyl, N-butyl)-acetamide]
[1]
  IC50: > 1000 nM
[2]; rat kidney membrane, [^3H]-PK11195 2 nM, 4° C., 1 hour, read-out: IC50 (nM) PBR
  IC50: 266 nM
